Here are results for one compound from US10143668B2, “Hydroxy-substituted amino and ammonium derivatives and their medical use” (GRI BIO, INC., priority 2011, dated 2018).

The subject of one experiment is RBL-2H3 cells. The experiment can be described thus: Inhibition of mast cell degranulation (β-hexosaminidase release). The experiment is classed as cell-based. The note with it: Rattus norvegicus, RBL-2H3 cells sensitized with anti-DNP IgE, triggered with DNP-HSA. The text has this: Mast cells are key effector cells involved in allergic and inflammatory diseases, and the Rat Basophilic Leukemia clone 2H3 (RBL-2H3) cell line is a commonly used model of allergen dependent immune modulator release (degranulation) in mast cells. On their surface, they express the high affinity receptor for IgE (FcεRI) Upon binding of antigen-specific IgE to the receptor, cells become sensitized to the IgE specific antigen (allergen). When IgE-sensitized cells then encounter multivalent antigen, the antigen clusters IgE-FcεRI complexes and initiates a signal transduction cascade that leads to degranulation, that is, the release of inflammatory mediators, such as cytokines, eicosanoids, histamine and enzymes. The assay can be used as a screening method to identify immune-modulating compounds, in particular compounds useful in the medical management of allergic and inflammatory diseases and asthma. β-hexosaminidase was previously shown to be released with the same kinetics as histamine (Schwartz et al., J Immunology; 123:1445-1450 (1979)), thus offering a simple means to monitor degranulation. The RBL-2H3 cell line has been successfully used to identify compounds with anti-allergic activity (Choo et al. Planta Med., 69:518-522 (2003)).
Cell Culture: RBL-2H3 cells obtained from the German Collection of Microorganisms and Cell Cultures (ACC312) (Braunschweig, Germany) were maintained in 70% Minimum Essential Medium with Earle's Salts, 20% RPMI 1640 Medium, 10% FBS and 2 mM L-glutamine in 95% air/5% CO2 at 37° C. and routinely checked for mycoplasma contamination. Cells were passaged every 3-4 days; after washing cells once with 35 ml PBS cells were incubated 8 min with 5 ml 0.05% Trypsin-EDTA solution at 37° C. Cells were removed from the incubator, 15 ml culture medium was added and cells were resuspended by repeated pipetting.
Cell seeding: cells were harvested with Trypsin-EDTA as described and 50-100 μl cell suspension seeded into Costar CellBind 24 well cluster plates (no. 3337). Plates were kept for 30 min at RT under the sterile hood before being transferred to the incubator. Cells were used within one or two days after seeding.
For sensitization, cells for immediate use were sensitized 6-12 h after plating; cells to be used the following day were sensitized 26-38 h after plating. Culture plates were removed from the incubator and checked for cell growth and contamination. The medium was discarded and cells were sensitized with anti-DNP IgE (0.4 μg/ml) in 0.4 ml culture medium overnight. Following overnight sensitization, cells were washed with 0.8 ml pre-warmed TyB and 0.38 ml test compound or vehicle control (supplemented or not with 1% FBS) were added to duplicate wells. Samples were adjusted to contain 1% vehicle for test compounds dissolved in organic solvents. Cells were incubated for 1 h at 37° C. At the end of the incubation period, cells were routinely stimulated with 20 μl DNP-HSA (2 μg/ml; final concentration 0.1 μg/ml) diluted in TyB and cells were incubated for 15 min at 37° C. Alternatively, cells were stimulated with 20 μl 5 μM ionomycin (final concentration 0.25 μM) or 20 μl 5 μM thapsigargin (final concentration 0.25 μM), both in the absence or presence of 20 nM PMA (final concentration). […]
MUG substrate solution, 100 μl, were added to supernatant and lysate samples and plates were incubated 30 min at 37° C. […] Fluorescene was measured at 365 nm excitation and 440 nm emmission wavelengths. […]

The test system of experiment [1] is collagen type II-induced arthritis (CIA) in mice.
The mark [2] stands for this setting: therapeutic regimen, 100 mg/kg orally twice daily for 20 days, vs vehicle.

The structures appear in SMILES notation. Read-outs that look alike come from different tables or passages of the source.

Take `CCCCCCCCCCCCCC[N+](C)(C)CC(=O)N(C)C[C@H](O)[C@@H](O)[C@H](O)[C@H](O)CO` [Compound 1a, N-(2-(Dimethyl(tetradecyl)ammonio)acetyl)-N-methyl-D-glucamine chloride]: the IC50 in the experiment on RBL-2H3 cells came to 3.8 µM. Moreover, in experiment [1] (prophylactic regimen), the cumulative arthritis score result was “significantly reduced” and the “duration of the disease” value was “significantly reduced”. Besides, the arthritic score entry in experiment [1] (prophylactic, 25 mg/kg orally twice daily, from day 34 to day 47, vs vehicle) was “significantly reduced”. Further, in experiment [1] (prophylactic, 25 mg/kg, from day 34 after immunization, vs vehicle), the paw thickness result is on record as “significant reduction”. Also, in experiment [1] (prophylactic, 100 mg/kg orally twice daily, from day 40 to day 47, vs vehicle), the arthritic score result is “significantly reduced”. In experiment [1] (setting [2]), the arthritis score result was “reduced the arthritis score and cumulative arthritis score compared to vehicle treated mice (FIG. 5C), but without reaching statistical significance”; the cumulative arthritis score entry is “reduced the arthritis score and cumulative arthritis score compared to vehicle treated mice (FIG. 5C), but without reaching statistical significance”. The duration of disease result in experiment [1] (therapeutic regimen, 100 mg/kg, vs vehicle) is reported as “trend to a reduction”.

One may read the IC50 as the midpoint of a concentration-inhibition curve.
